Experimental data: article PMC7600679, “Benzoxazole-Based Metal Complexes to Reverse Multidrug Resistance in Bacteria” (Antibiotics, 2020)
In brackets after ≈: the same amount, converted by molar mass.

Columns and labels:
[1] = test system: Chromobacterium violaceum 026; assay: Minimum inhibitory concentration (broth microdilution, CLSI); assay type: cell-based; details: C. violaceum 026
Procedure: (§1) The following bacterial strains were applied in the QS tests: C. violaceum 026 as sensor strain and E. cloacae 31298 isolated from clinical wound (used as N-acyl-homoserine lactone (AHL) producer); this strain induced pigment production by C. violaceum and is a model strain to study QS interactions.
(§2) The minimum inhibitory concentrations (MICs) of compounds were determined in 96-well plates based on the Clinical and Laboratory Standard Institute guidelines (CLSI guidelines). The compounds were diluted in 100 μL of MHB. Then, 10^−4 dilution of an overnight bacterial culture in 100 μL of medium were added to each well, with the exception of the medium control wells.

[2] = test system: Enterobacter cloacae 31298; assay: as above; assay type: cell-based; details: E. cloacae 31298
Procedure: as §1, §2

[3] = test system: Staphylococcus aureus ATCC 25923; assay: as above; assay type: cell-based; details: S. aureus ATCC 25923, 18 h, visual inspection
Procedure: (§3) The compounds were further investigated against two Gram-positive strains, S. aureus ATCC 25923 (MSSA), used as the methicillin susceptible reference strain, and the methicillin- and ofloxacin-resistant S. aureus 272123 clinical isolate (MRSA), which was given by Prof. Dr. Leonard Amaral (Institute of Hygiene and Tropical Medicine, Lisbon, Portugal).
as §2

[4] = test system: MRC-5 human embryonal lung fibroblast cell line; assay: Cytotoxicity assay (MTT); assay type: cell-based
Procedure: The MRC-5 human embryonic lung fibroblast cell line (ATCC CCL-171; provider: LGC Promochem, Teddington, UK) was used in the experiments. The cells were cultivated in Eagle’s Minimal Essential Medium (EMEM; Sigma–Aldrich, St. Louis, MO, USA), supplemented with 1% non-essential amino acid mixture, 10% heat-inactivated fetal bovine serum, 2 mM L-glutamine, 1 mM Na-pyruvate, nystatin, and a penicillin–streptomycin mixture in concentrations of 100 U/L and 10 mg/L, respectively. The supplementary components were obtained from Sigma–Aldrich, St. Louis, MO, USA. The cell culture was kept in a humidified atmosphere (5% CO2, 95% air) at 37 °C.
The activity of increasing concentrations of the compounds on cell growth was determined in 96-well flat-bottomed microtiter plates by two-fold serial dilutions of the benzoxazole derivatives. The adherent human embryonic lung fibroblast cells (10^4/well) was seeded in EMEM medium in 96-well microtiter plates for 4 h prior to the assay. The serial dilutions of the compounds were made in a separate plate, and then pipetted to the plates containing the MRC-5 cell line. Culture plates were incubated at 37 °C for 24 h; at the end of the incubation period, 20 μL of MTT (3-(4,5-dimethylthiazol-2-yl)-2,5-diphenyltetrazolium bromide) solution (from a 5 mg/mL stock solution) was measured to each well. After the incubation at 37 °C for 4 h, 100 μL of sodium dodecyl sulfate (SDS) solution (10% SDS in 0.01 M HCl) was added to each well to dissolve the formazan crystals and the samples were further incubated at 37 °C overnight. Cell growth was calculated by measuring the OD at 540 nm (ref. 630 nm) with a Multiscan EX ELISA reader. The cytotoxicity was expressed as IC50 values, defined as the inhibitory dose that reduces the growth of the cells exposed to the tested compounds by 50%.

[5] = test system: S. aureus 272123 (MRSA); assay: Minimum inhibitory concentration (broth microdilution, CLSI); assay type: cell-based, Staphylococcus aureus; details: 18 h, visual inspection
Procedure: as §3, §2

[6] = test system: S. aureus ATCC 25923; assay: Real-time ethidium bromide accumulation (efflux pump inhibition); assay type: cell-based, Staphylococcus aureus; details: compounds at ¼ MIC, EB 1 μg/mL, minute 30
Procedure: (§4) Since multidrug resistance EPs are very important factors contributing to multidrug resistance (MDR) in both Gram-positive and Gram-negative bacteria, the inhibition of these pumps could reverse the resistant phenotype and restore the activity of antibiotics. The effect of compounds on ethidium bromide (EB) accumulation was determined by the automated EB method. This assay was used to determine how much of the fluorescent dye and pump substrate EB was accumulated by the bacterial cells in the presence of the tested compounds. The real-time accumulation of EB was monitored for 30 min in both S. aureus and E. coli strains.
(§5) The accumulation of the efflux pump substrate EB was monitored by the automated EB method using a LightCycler real-time thermocycler (LightCycler 1.5, Roche, Indianapolis, IN, USA). An aliquot of an overnight culture of the S. aureus strains in TSB medium was inoculated into fresh TSB medium, and it was incubated until it reached an optical density (OD) of 0.6 at 600 nm. In the case of E. coli strains, the medium applied in the assay was LB broth; the preparation of the inoculum was similar to the one of S. aureus. The cells were washed with phosphate buffered saline (PBS; pH 7.4) and centrifuged at 13,000 × g for 3 min, the pellets were re-suspended in PBS (pH 7.4), and the OD was calibrated to 0.6 at 600 nm. The compounds were measured at ¼ MIC concentration (in double-concentrated form) to the EB solution in PBS. The final concentration of EB was determined according to the MIC and the fluorescent signal produced by this amount of EB. In the case of all strains, the concentration of EB was 1 μg/mL. Then, 10 μL of the EB solution plus the compound were pipetted into standard glass capillary tubes of 20 µL maximum volume (Roche, Indianapolis, USA), and 10 μL of bacterial culture (OD of 0.6 at 600 nm) were transferred to the capillaries. The capillaries containing the samples were placed into the carousel, and the fluorescence was monitored at the FL-2 channel in every minute on a real-time basis.
(§6) Based on the data obtained, the relative fluorescence index (RFI) of the last time point (minute 30) was determined as follows:RFI = (RFtreated − RFuntreated)/RFuntreated(1) where RFtreated is the relative fluorescence (RF) at the last time point of the EB retention curve in the presence of an inhibitor, and RFuntreated is the relative fluorescence at the last time point of the EB retention curve of the untreated control having the solvent control (DMSO).

[7] = test system: S. aureus 272123 (MRSA); assay: as above; assay type: cell-based, Staphylococcus aureus; details: compounds at ¼ MIC (3 at 12.5 µM), VER at 25 µM, EB 1 μg/mL, minute 30
Procedure: as §4, §5, §6

| Structure (SMILES) | MIC ([1]; Chromobacterium violaceum) [µM] | MIC ([2]; Enterobacter cloacae) [µM] | MIC ([3]; Staphylococcus aureus, ATCC25923) [µM] | Cytotoxic effect (class in words) ([4]; 24 h) | IC50 ([4]; Homo sapiens, MRC5, 24 h) [µM] | MIC [5] [µM] | MIC ([5]; Staphylococcus aureus) [µM] | Relative fluorescence index (RFI) [6] | Relative fluorescence index (RFI) [7] | MIC [1] [µM] | MIC [2] [µM] | MIC [3] [µM] | IC50 ([4]; 24 h) [µM] |
| --- | --- | --- | --- | --- | --- | --- | --- | --- | --- | --- | --- | --- | --- |
| O=C(Cc1nc2ccccc2o1)C(F)F [Compound 3] | > 100 | > 100 | 100 (≈ 21.1 µg/mL) | moderate (IC50: 31–60) | 44.5 | 50 (≈ 10.6 µg/mL) | 50 (≈ 10.6 µg/mL) | −0.01 | 0.13 | – | – | – | – |
| [O-]C(=Cc1nc2ccccc2o1)C(F)(F)Cl.[O-]C(=Cc1nc2ccccc2o1)C(F)(F)Cl.[Zn+2] [Compound 5] | – | – | – | – | – | 3.125 | – | 0.03 | −0.13 | >100 | >100 | 12.5 | 24.6 |
| [Fe+3].[O-]C(=Cc1nc2ccccc2o1)C(F)(F)F.[O-]C(=Cc1nc2ccccc2o1)C(F)(F)F.[O-]C(=Cc1nc2ccccc2o1)C(F)(F)F [Compound 12] | – | – | – | no (IC50 > 100 µM) | – | 25 | – | −0.02 | −0.02 | >100 | >100 | 50 | > 100 |
